Source: patent US9856279B2 (AGIOS PHARMACEUTICALS, INC, priority 2011, dated 2018)

How the values were obtained:
U87MG cells = assay: Cellular assay for IDH1m inhibitors: inhibition of 2-HG production (LC-MS, 48 hours) in U87MG cells; assay type: cell-based; conditions: Homo sapiens, U-87 MG, inhibition of 2-HG production, U87R132H cells; read-out: U87R132H IC50
How it was run: (§1)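 Each cell line is plated at 5000 cells/well in DMEM with 10% FBS and left overnight at 37 °C. Test compounds are then added for 48 h, after which 2-HG in the medium is determined by LC-MS; IC50 reflects 50% reduction compared with control.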

HT1080 cells = assay: Cellular assay for IDH1m inhibitors: inhibition of 2-HG production (LC-MS, 48 hours) in HT1080 cells; assay type: cell-based; conditions: Homo sapiens, HT-1080; inhibition of 2-HG production, HT1080 cells; read-out: HT1080 IC50
How it was run: as §1

IDH1 R132H = IDH1 R132H (Homo sapiens, UniProt O75874, R132H); assay: Assay for IDH1 R132H inhibitors (NADPH/aKG, resazurin detection); assay type: biochemical; conditions: enzyme assay of Example 12; read-out: IDH1R132H IC50
Chain of IDH1 R132H (O75874 whole entry R132H): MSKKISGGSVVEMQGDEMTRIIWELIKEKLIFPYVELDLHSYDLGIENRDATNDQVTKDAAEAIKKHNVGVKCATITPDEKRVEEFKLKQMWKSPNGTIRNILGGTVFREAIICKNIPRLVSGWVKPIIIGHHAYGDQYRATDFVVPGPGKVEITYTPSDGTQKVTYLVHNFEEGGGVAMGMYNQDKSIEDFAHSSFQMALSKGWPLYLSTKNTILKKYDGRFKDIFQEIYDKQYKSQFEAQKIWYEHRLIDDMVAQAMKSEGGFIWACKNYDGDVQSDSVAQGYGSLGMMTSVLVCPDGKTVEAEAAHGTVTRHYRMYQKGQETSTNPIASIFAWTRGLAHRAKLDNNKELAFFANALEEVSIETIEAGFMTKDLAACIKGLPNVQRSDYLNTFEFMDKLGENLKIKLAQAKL
How it was run: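 Compound added to substrate mix (8 uM NADPH, 2 mM aKG), then enzyme mix (0.2 μg/ml IDH1 R132H); 50 min RT in 20 mM Tris pH 7.5, 150 mM NaCl, 10 mM MgCl2, 0.03% BSA. Resazurin detection mix (30 μM) 5 min RT; resorufin fluorescence Ex544/Em590.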

Compound	IC50 (U87MG cells)	IC50 (HT1080 cells)	IC50 (IDH1 R132H)
C=Cc1ccc2c(-c3cc(C#N)c(N4CCN(C(=O)CCOC)[C@H](C)C4)nc3C3CC3)cccc2n1 [Compound 608, (R)-6-cyclopropyl-2-(4-(3-methoxypropanoyl)-3-methylpiperazin-1-yl)-5-(2-vinylquinolin-5-yl)nicotinonitrile]	< 0.5 µM	< 0.5 µM	< 0.5 µM
C=Cc1cc(-c2cc(C#N)c(N3CCN(C(=O)CCO)[C@H](C)C3)nc2C2CC2)c2ccncc2n1 [Compound 609, (R)-6-cyclopropyl-2-(4-(3-hydroxypropanoyl)-3-methylpiperazin-1-yl)-5-(2-vinyl-1,7-naphthyridin-4-yl)nicotinonitrile]	< 0.5 µM	< 0.5 µM	< 0.5 µM
C#CC(=O)N1CC=C(c2cc(C#N)c(N3CCN(C(=O)C4CC4)[C@H](C)C3)nc2C2CC2)C1 [Compound 610, (R)-2-(4-(cyclopropanecarbonyl)-3-methylpiperazin-1-yl)-6-cyclopropyl-5-(1-propioloyl-2,5-dihydro-1H-pyrrol-3-yl)nicotinonitrile]	< 0.5 µM	< 0.5 µM	< 0.5 µM
C=Cc1cc(-c2cc(C#N)c(N3CCN(C(=O)CCOC)[C@H](C(C)C)C3)nc2C2CC2)c2ccncc2n1 [Compound 611, (R)-6-cyclopropyl-2-(3-isopropyl-4-(3-methoxypropanoyl)piperazin-1-yl)-5-(2-vinyl-1,7-naphthyridin-4-yl)nicotinonitrile]	< 0.5 µM	< 0.5 µM	< 0.5 µM
C=CC(=O)N1CC=C(c2cc(C#N)c(N3CCN(C(=O)C4CC4)[C@H](C)C3)nc2C2CC2)C1 [Compound 612, (R)-5-(1-acryloyl-2,5-dihydro-1H-pyrrol-3-yl)-2-(4-(cyclopropanecarbonyl)-3-methylpiperazin-1-yl)-6-cyclopropylnicotinonitrile]	< 0.5 µM	< 0.5 µM	< 0.5 µM
C=Cc1cc(-c2cc(C#N)c(N3CCN(C(=O)C4CC4)[C@H](C4CC4)C3)nc2C2CC2)cnn1 [Compound 613, (R)-2-(4-(cyclopropanecarbonyl)-3-cyclopropylpiperazin-1-yl)-6-cyclopropyl-5-(6-vinylpyridazin-4-yl)nicotinonitrile]	< 0.5 µM	< 0.5 µM	< 0.5 µM
C=Cc1cc(-c2cc(C#N)c(N3CCN(C(=O)CCOC)[C@H](C)C3)nc2C2CC2)cnn1 [Compound 615, (R)-6-cyclopropyl-2-(4-(3-methoxypropanoyl)-3-methylpiperazin-1-yl)-5-(6-vinylpyridazin-4-yl)nicotinonitrile]	< 0.5 µM	< 0.5 µM	< 0.5 µM
C=Cc1cc(Nc2cc(C#N)c(N3CCN(C(=O)CCO)[C@H](C)C3)nc2C2CC2)ncn1 [Compound 617, (R)-6-cyclopropyl-2-(4-(3-hydroxypropanoyl)-3-methylpiperazin-1-yl)-5-(6-vinylpyrimidin-4-ylamino)nicotinonitrile]	< 0.5 µM	< 0.5 µM	< 0.5 µM
C=Cc1cnc2c(-c3cc(C#N)c(N4CCN(C(=O)CCO)[C@H](C)C4)nc3C3CC3)cccc2n1 [Compound 618, (R)-6-cyclopropyl-2-(4-(3-hydroxypropanoyl)-3-methylpiperazin-1-yl)-5-(2-vinylquinoxalin-5-yl)nicotinonitrile]	< 0.5 µM	< 0.5 µM	< 0.5 µM
C=Cc1cc(-c2cc(C#N)c(N3CCN(C(=O)CCO)[C@H](C)C3)nc2C2CC2)ncn1 [Compound 621, (R)-6-cyclopropyl-2-(4-(3-hydroxypropanoyl)-3-methylpiperazin-1-yl)-5-(6-vinylpyrimidin-4-yl)nicotinonitrile]	0.5 to 1 µM	< 0.5 µM	< 0.5 µM
C=Cc1cc(-c2cc(C#N)c(N3CCN(C(=O)CCO)[C@H](C)C3)nc2C2CC2)c2cccnc2n1 [Compound 625, (R)-6-cyclopropyl-2-(4-(3-hydroxypropanoyl)-3-methylpiperazin-1-yl)-5-(2-vinyl-1,8-naphthyridin-4-yl)nicotinonitrile]	< 0.5 µM	< 0.5 µM	< 0.5 µM
C=Cc1cc(-c2cc(C#N)c(N3CCN(C(=O)CCOC)[C@H](C(C)C)C3)nc2C2CC2)c2cccnc2n1 [Compound 626, (R)-6-cyclopropyl-2-(3-isopropyl-4-(3-methoxypropanoyl)piperazin-1-yl)-5-(2-vinyl-1,8-naphthyridin-4-yl)nicotinonitrile]	< 0.5 µM	< 0.5 µM	< 0.5 µM
C=Cc1cc(-c2c(C3CC3)nc(N3CCN(C(=O)CCOC)[C@H](C)C3)c(C#N)c2C)ncn1 [Compound 627, (R)-6-cyclopropyl-2-(4-(3-methoxypropanoyl)-3-methylpiperazin-1-yl)-4-methyl-5-(6-vinylpyrimidin-4-yl)nicotinonitrile]	< 0.5 µM	< 0.5 µM	< 0.5 µM
C=Cc1cc(-c2c(C3CC3)nc(N3CCN(C(=O)CCOC)[C@H](C)C3)c(C#N)c2C)ccn1 [Compound 628, (R)-2-cyclopropyl-6-(4-(3-methoxypropanoyl)-3-methylpiperazin-1-yl)-4-methyl-2′-vinyl-[3,4′-bipyridine]-5-carbonitrile]	< 0.5 µM	< 0.5 µM	< 0.5 µM
C=Cc1cc(-c2cc(C#N)c(N3CCN(C(=O)CCO)[C@H](C(C)C)C3)nc2C2CC2)c2cccnc2n1 [Compound 629, (R)-6-cyclopropyl-2-(4-(3-hydroxypropanoyl)-3-isopropylpiperazin-1-yl)-5-(2-vinyl-1,8-naphthyridin-4-yl)nicotinonitrile]	< 0.5 µM	< 0.5 µM	< 0.5 µM
C=Cc1cc(-c2cc(C#N)c(N3CCN(C(=O)CCOC)[C@H](C(C)C)C3)nc2C2CC2)ccn1 [Compound 631, (R)-2-cyclopropyl-6-(3-isopropyl-4-(3-methoxypropanoyl)piperazin-1-yl)-2′-vinyl-3,4′-bipyridine-5-carbonitrile]	< 0.5 µM	< 0.5 µM	< 0.5 µM
C=Cc1ccc2c(-c3cc(C#N)c(N4CCN(C(=O)CCO)[C@H](C)C4)nc3C3CC3)cccc2n1 [Compound 633, (R)-6-cyclopropyl-2-(4-(3-hydroxypropanoyl)-3-methylpiperazin-1-yl)-5-(2-vinylquinolin-5-yl)nicotinonitrile]	< 0.5 µM	< 0.5 µM	< 0.5 µM
C=Cc1ncc2c(-c3cc(C#N)c(N4CCN(C(=O)CCOC)[C@H](C(C)C)C4)nc3C3CC3)cccc2n1 [Compound 634, (R)-6-cyclopropyl-2-(3-isopropyl-4-(3-methoxypropanoyl)piperazin-1-yl)-5-(2-vinylquinazolin-5-yl)nicotinonitrile]	< 0.5 µM	< 0.5 µM	< 0.5 µM
C=Cc1ncc2c(-c3cc(C#N)c(N4CCN(C(=O)CCOC)[C@H](C5CC5)C4)nc3C3CC3)cccc2n1 [Compound 635, (R)-6-cyclopropyl-2-(3-cyclopropyl-4-(3-methoxypropanoyl)piperazin-1-yl)-5-(2-vinylquinazolin-5-yl)nicotinonitrile]	< 0.5 µM	< 0.5 µM	< 0.5 µM
C=Cc1ncc2c(-c3cc(C#N)c(N4CCN(C(=O)C5CC5)[C@H](C5CC5)C4)nc3C3CC3)cccc2n1 [Compound 636, (R)-2-(4-(cyclopropanecarbonyl)-3-cyclopropylpiperazin-1-yl)-6-cyclopropyl-5-(2-vinylquinazolin-5-yl)nicotinonitrile]	< 0.5 µM	< 0.5 µM	< 0.5 µM
